≈ marks a conversion by molar mass, not a printed value. Where a name gives a salt, the structure may show the parent alone.
Key:
Format in all cases: cell-based
[1] = system: Fusarium solani; test: MIC by micro-liquid dilution method (Alamar Blue assay), Fusarium solani; set-up: unit not given here; settings: 10 clinical strains; 35° C., 72 hours; MIC = minimum concentration with IC not less than 80%
Protocol: (§1) The MICs of each type of antifungal agent against Fusarium oxysporum and Fusarium solani were determined. That is, each fungus was cultured at 35° C. for 72 hours using, as a medium, “RPMI 1640/MOPS liquid medium supplemented with 10% Alamar Blue (registered trademark) (pH 7.0)” (see Shinobu Ishigaki et al., The Journal of the Japanese Association for Infectious Diseases, vol. 74(3) (2000) pp. 221-230) according to the micro-liquid dilution method (Alamar Blue assay), which is in accordance with the CLSI standardization and the Japanese Society for Medical Mycology method. Thereafter, O.D. was measured for investigating color change of the oxidation-reduction indicator Alamar Blue, to determine the minimum inhibitory concentration (MIC). That is, the growth inhibition rate (IC) was determined based on the O.D. value, and the minimum concentration of the agent at which an IC of not less than 80% was achieved was determined as MIC. Two strains of Fusarium oxysporum (clinically separated strains; Teikyo University Institute of Medical Mycology), and 10 strains of Fusarium solani (clinically separated strains; Institute of Dermatology (Thailand) and Teikyo University Institute of Medical Mycology) were used.

[2] = system: Fusarium oxysporum; test: MIC by micro-liquid dilution method (Alamar Blue assay), Fusarium oxysporum; set-up: unit not given here; settings: 2 clinical strains; 35° C., 72 hours; MIC = minimum concentration with IC not less than 80%
Protocol: as §1

[3] = system: Trichomonas vaginalis; test: Growth inhibition of Trichomonas vaginalis in Trichomonas Medium F (neutral red colour, microscopy); settings: for MIC: clinically isolated Trichomonas vaginalis, read-out: minimum inhibitory concentration (MIC); for MIC / Color / Result of observation under the microscope: 72 hours; for Color: 37° C.; for Result of observation under the microscope: inverted microscope
Protocol: Among the compounds represented by General Formula (1), luliconazole was selected for investigation of the effect on Trichomonas vaginalis. That is, 5×10^6 cells of clinically isolated Trichomonas vaginalis were seeded in Trichomonas Medium F, manufactured by Fuji Pharma Industrial Co., Ltd., which contains neutral red as a marker (6.5 mL, contained in a tube). Preculture was performed for 72 hours (preculture). After confirming that the Trichomonas has grown to actively produce acid and to thereby cause changing of the color of neutral red to yellow, 100 μL of the obtained preculture liquid was added to Trichomonas Medium F to be used for main culture. To resulting mixture, 0.5 mL of each test liquid was further added. The number of Trichomonas cells in the preculture liquid at this time was 1.5×10^5 cells/mL. Three types of test liquids, that is, solutions of luliconazole in 10% methanol/saline solution at luliconazole concentrations of 200 μM (final concentration, 35.2 μM), 100 μM (final concentration, 17.6 μM) and 50 μM (final concentration, 8.8 μM), were provided. A control was prepared by adding 0.5 mL of a vehicle as a test liquid. As the vehicle, 10% methanol/saline solution (final concentration, 0 μM) was used. After the addition, each resulting mixture was stirred well, and culture was carried out at 37° C. for 72 hours. Thereafter, the color was judged, and the condition of Trichomonas cells was observed under an inverted microscope.
The same study as in Example 1 was carried out except that lanoconazole was used instead of luliconazole.

[4] = system: Chlamydia trachomatis (D/UW3/Cx); test: Anti-intracellular parasite action: Chlamydia trachomatis cultured in HeLa 229 cells, fluorescent staining of inclusion bodies
Protocol: FIG. 1 is a diagram (photographs) illustrating the results of observation of chlamydial inclusion bodies after luliconazole treatment, which observation was carried out by fluorescent staining using a Chlamydia FA reagent “Seiken”.
Using Chlamydia trachomatis (D/UW3/Cx), the anti-intracellular parasite action was examined. That is, Chlamydia trachomatis was cultured using HeLa 229 cells as a host in the presence of a 2-fold dilution series of 8 to 64 μg/mL luliconazole. The culture was carried out using, as a medium, MEM supplemented with 1 μg/mL cyclohexamide and 8% heat-inactivated FBS, at 37° C. under 5% carbon dioxide for 72 hours. Thereafter, inclusion bodies were fluorescently stained in apple green using a Chlamydia FA reagent “Seiken” (manufactured by Denka Seiken Co., Ltd.), and observed under a fluorescence microscope.

[5] = final concentration 8.8 μM, neutral red marker
[6] = final concentration 17.6 μM, neutral red marker
[7] = final concentration 35.2 μM, neutral red marker (yellow = acid production by growing Trichomonas)

In the case of `C[C@@H]1[C@H](O)[C@@H](C)/C=C/C=C/C=C/C=C/C=C/C=C/C=C/[C@H](O[C@@H]2O[C@H](C)[C@@H](O)[C@H](N)[C@@H]2O)C[C@@H]2O[C@](O)(C[C@@H](O)C[C@@H](O)[C@H](O)CC[C@@H](O)C[C@@H](O)CC(=O)O[C@H]1C)C[C@H](O)[C@H]2C(=O)O` [AMB, Amphotericin B], the “MIC, F. solani (10), lower line of each agent (range)” value (“MIC, F. solani (10), lower line” for short) [1] is reported as 2-4.

`CCC(C)(C)c1ccc(CC(C)CN2C[C@@H](C)O[C@@H](C)C2)cc1` (stereo partly drawn) [AMO, Amorolfine hydrochloride] was tested, and the “MIC, F. oxysporum (2), lower line of each agent (range)” value (“MIC, F. oxysporum (2), lower line” for short) [2] was over 4 and the “MIC, F. solani (10), lower line” value [1] was over 4.

`C=C1CCN([C@H](C)[C@](O)(Cn2cncn2)c2ccc(F)cc2F)CC1` [EFCZ, Efinaconazole] was tested, and the “MIC, F. oxysporum (2), lower line” value [2] was 0.25-1.

`C[C@@H](c1ncncc1F)[C@](O)(Cn1cncn1)c1ccc(F)cc1F` [VCZ, Voriconazole] was tested, and the “MIC, F. oxysporum (2), lower line” value [2] was over 4.

For `Clc1ccc(COC(Cn2ccnc2)c2ccc(Cl)cc2Cl)c(Cl)c1` (stereo not drawn) [MCZ, Miconazole nitrate], the “MIC, F. oxysporum (2), lower line” value [2] was over 4.

For `c1ccc(-c2ccc(C(c3ccccc3)n3ccnc3)cc2)cc1` (stereo not drawn) [BFZ, Bifonazole], the “MIC, F. oxysporum (2), lower line” value [2] was over 4 and the “MIC, F. solani (10), lower line” value [1] was over 4.

`OC(Cn1cncn1)(Cn1cncn1)c1ccc(F)cc1F` [FCZ, Fluconazole] was tested, and the “MIC, F. oxysporum (2), lower line” value [2] was over 4 and the “MIC, F. solani (10), lower line” value [1] was over 4.

`N#C/C(=C1/SC[C@@H](c2ccc(Cl)cc2Cl)S1)n1ccnc1` [luliconazole, (R)-(−)-(E)-[4-(2,4-dichlorophenyl)-1,3-dithiolan-2-ylidene]-1-imidazolylacetonitrile] was tested, and the “growth of Trichomonas” value ([3]; 8.8 μM) was “inhibited the growth of Trichomonas”, the MIC [3] was about 8.8 µM (≈ 3.12 µg/mL) and the Color [3, 5] was “Yellow”. For the same compound, the Color [3, 6] was “Red”, the “Result of observation under the microscope” value (from here on “Result of observation”) ([3]; final concentration 17.6 μM) was “No Trichomonas cell was found” and the Color [3, 7] was “Red”. For the same compound, the “Result of observation” value ([3]; final concentration 35.2 μM) was “No Trichomonas cell was found”, the “observation of chlamydial inclusion bodies” value ([4]; 8 μg/mL, FIG. 1 panel (A)) was “chlamydial inclusion bodies were found” and the “observation of chlamydial inclusion bodies” value ([4]; 16 μg/mL, FIG. 1 panel (B)) was “chlamydial inclusion bodies were found”. The “observation of chlamydial inclusion bodies” value ([4]; 32 μg/mL, FIG. 1 panel (C)) was “no inclusion body was found”, the MIC ([4]; Chlamydia trachomatis, HeLa 229 host cells, 72 hours, 2-fold dilution series 8 to 64 μg/mL, read-out: MIC against Chlamydia trachomatis) was 32 µg/mL (≈ 90.3 µM) and the “MIC, F. oxysporum (2), lower line” value [2] was 0.016-0.031. The “MIC, F. solani (10), lower line” value [1] was 0.016-0.063.

With `Clc1ccccc1C(c1ccccc1)(c1ccccc1)n1ccnc1` [CTZ, Clotrimazole] the “MIC, F. oxysporum (2), lower line” value [2] was over 4 and the “MIC, F. solani (10), lower line” value [1] was over 4.

`CC(=O)N1CCN(c2ccc(OCC3COC(Cn4ccnc4)(c4ccc(Cl)cc4Cl)O3)cc2)CC1` (stereo not drawn) [KCZ, Ketoconazole] was tested, and the “MIC, F. oxysporum (2), lower line” value [2] was over 4.

With `N#C/C(=C1/SCC(c2ccccc2Cl)S1)n1ccnc1` (stereo not drawn) [lanoconazole, 4-(2-chlorophenyl)-1,3-dithiolan-2-ylidene-1-imidazolylacetonitrile] the MIC [3] was about 17.6 µM (≈ 5.63 µg/mL), the Color [3, 5] was “Yellow” and the Color [3, 6] was “Red”. The Color [3, 7] was “Red”, the “Result of observation” value ([3]; final concentration 35.2 μM) was “No Trichomonas cell was found” and the “growth of Trichomonas” value ([3]; same study as Example 1, no concentration stated) was “inhibit the growth of Trichomonas”. For the same compound, the “MIC, F. oxysporum (2), lower line” value [2] was 0.063-0.13 and the “MIC, F. solani (10), lower line” value [1] was 0.063-0.25.

In the case of `CCC(C)n1ncn(-c2ccc(N3CCN(c4ccc(OCC5COC(Cn6cncn6)(c6ccc(Cl)cc6Cl)O5)cc4)CC3)cc2)c1=O` (stereo not drawn) [ITZ, Itraconazole], the “MIC, F. oxysporum (2), lower line” value [2] is reported as over 4 and the “MIC, F. solani (10), lower line” value [1] is reported as over 4.
